ChEMBL document CHEMBL4406842, “Synthesis and in vitro biological evaluation of novel derivatives of Flexicaulin A condensation with amino acid trifluoroacetate” (Eur J Med Chem, 2019)
Each block holds one molecule with its values, some of them ahead of it.

Tests used:
TE-1 = experiment: Antiproliferative activity against human TE1 cells assessed as reduction in cell viability incubated for 72 hrs by SRB assay; type: functional, cell-based; settings: TE-1, 72 h
MCF7 = experiment: Antiproliferative activity against human MCF7 cells assessed as reduction in cell viability incubated for 72 hrs by SRB assay; type: functional, cell-based; settings: MCF7, 72 h
A549 = experiment: Antiproliferative activity against human A549 cells assessed as reduction in cell viability incubated for 72 hrs by SRB assay; type: functional, cell-based; settings: A549, 72 h
MGC-803 = experiment: Antiproliferative activity against human MGC803 cells assessed as reduction in cell viability incubated for 72 hrs by SRB assay; type: functional, cell-based; settings: MGC-803, 72 h
[1] = Solubility of compound in water; type: physicochemical; settings: buffer

Compound: C=C1C(=O)[C@@]23[C@H](O)C[C@@H]4C(C)(C)CCC[C@@]4(COC(C)=O)[C@@H]2[C@@H](O)C[C@@H]1[C@H]3O [FLEXICANLIN A]
IC50 (TE-1): 5.07 µM | IC50 (MCF7): 5.45 µM | IC50 (A549): 6.77 µM | IC50 (MGC-803): 9.94 µM | solubility [1]: Insoluble

Compound: C=C1C(=O)[C@]23[C@H](OC(=O)CCCCCN)[C@H]1C[C@H](O)[C@H]2[C@]1(COC(C)=O)CCCC(C)(C)[C@H]1C[C@H]3OC.O=C(O)C(F)(F)F
IC50 (TE-1): 5.36 µM | IC50 (MCF7): 3.68 µM | IC50 (A549): 11.4 µM | IC50 (MGC-803): 5.14 µM | solubility [1]: Soluble

Compound: C=C1C(=O)[C@]23[C@H](OC(=O)[C@@H](N)CCCN)[C@H]1C[C@H](O)[C@H]2[C@]1(COC(C)=O)CCCC(C)(C)[C@H]1C[C@H]3OC.O=C(O)C(F)(F)F.O=C(O)C(F)(F)F
IC50 (TE-1): 2.71 µM | IC50 (MCF7): 6.55 µM | IC50 (A549): 8.04 µM | IC50 (MGC-803): 5.28 µM | solubility [1]: Soluble

Compound: C=C1C(=O)[C@]23[C@H](OC(=O)CCCCN)[C@H]1C[C@H](O)[C@H]2[C@]1(COC(C)=O)CCCC(C)(C)[C@H]1C[C@H]3OC.O=C(O)C(F)(F)F
IC50 (TE-1): 3.16 µM | IC50 (MCF7): 7.89 µM | IC50 (A549): 1.62 µM | IC50 (MGC-803): 7.15 µM | solubility [1]: Soluble

Compound: C=C1C(=O)[C@]23[C@H](OC(=O)[C@@H](N)CCCCN)[C@H]1C[C@H](O)[C@H]2[C@]1(COC(C)=O)CCCC(C)(C)[C@H]1C[C@H]3OC.O=C(O)C(F)(F)F.O=C(O)C(F)(F)F
IC50 (TE-1): 14.3 µM | IC50 (MCF7): 22.2 µM | IC50 (A549): 5.86 µM | IC50 (MGC-803): 9.52 µM | solubility [1]: Soluble

Compound: C=C1C(=O)[C@]23[C@H](OC(=O)CN)[C@H]1C[C@H](O)[C@H]2[C@]1(COC(C)=O)CCCC(C)(C)[C@H]1C[C@H]3OC.O=C(O)C(F)(F)F
IC50 (TE-1): 1.85 µM | IC50 (MCF7): 2.57 µM | IC50 (A549): 3.86 µM | IC50 (MGC-803): 3.15 µM | solubility [1]: Soluble

Compound: C=C1C(=O)[C@]23[C@H](OC(=O)[C@@H](N)CCC)[C@H]1C[C@H](O)[C@H]2[C@]1(COC(C)=O)CCCC(C)(C)[C@H]1C[C@H]3OC.O=C(O)C(F)(F)F
IC50 (TE-1): 1.72 µM | IC50 (MCF7): 4.57 µM | IC50 (A549): 1.64 µM | IC50 (MGC-803): 4.94 µM | solubility [1]: Soluble

Compound: C=C1C(=O)[C@]23[C@H](OC(=O)[C@@H]4CCCCN4C(=O)OC(C)(C)C)[C@H]1C[C@H](O)[C@H]2[C@]1(COC(C)=O)CCCC(C)(C)[C@H]1C[C@H]3OC
IC50 (TE-1): 1.46 µM | IC50 (MCF7): 2.69 µM | IC50 (A549): 3.57 µM | IC50 (MGC-803): 3 µM | solubility [1]: Insoluble

Compound: C=C1C(=O)[C@]23[C@H](OC(=O)[C@@H](N)CCCC)[C@H]1C[C@H](O)[C@H]2[C@]1(COC(C)=O)CCCC(C)(C)[C@H]1C[C@H]3OC.O=C(O)C(F)(F)F
IC50 (TE-1): 2.64 µM | IC50 (MCF7): 2.51 µM | IC50 (A549): 1.54 µM | IC50 (MGC-803): 3.22 µM | solubility [1]: Soluble

Compound: C=C1C(=O)[C@]23[C@H](OC(=O)[C@@H](N)C(C)C)[C@H]1C[C@H](O)[C@H]2[C@]1(COC(C)=O)CCCC(C)(C)[C@H]1C[C@H]3OC.O=C(O)C(F)(F)F
IC50 (TE-1): 1.97 µM | IC50 (MCF7): 1.27 µM | IC50 (A549): 2.67 µM | IC50 (MGC-803): 0.99 µM | solubility [1]: Soluble

Compound: C=C1C(=O)[C@]23[C@H](OC(=O)CNC)[C@H]1C[C@H](O)[C@H]2[C@]1(COC(C)=O)CCCC(C)(C)[C@H]1C[C@H]3OC.O=C(O)C(F)(F)F
IC50 (TE-1): 3.19 µM | IC50 (MCF7): 3.62 µM | IC50 (A549): 5.86 µM | IC50 (MGC-803): 5.35 µM | solubility [1]: Soluble

Compound: C=C1C(=O)[C@]23[C@H](OC(=O)[C@@H]4CCCCN4)[C@H]1C[C@H](O)[C@H]2[C@]1(COC(C)=O)CCCC(C)(C)[C@H]1C[C@H]3OC.O=C(O)C(F)(F)F
IC50 (TE-1): 3.16 µM | IC50 (MCF7): 3.49 µM | IC50 (A549): 2.84 µM | IC50 (MGC-803): 7.15 µM | solubility [1]: Soluble

More lines, main results first:

IC50 (MCF7): 1.58 µM | IC50 (A549): 2.94 µM | IC50 (MGC-803): 2.21 µM | solubility [1]: Insoluble
Compound: C=C1C(=O)[C@]23[C@H](OC(=O)[C@@H](NC(=O)OC(C)(C)C)c4ccccc4)[C@H]1C[C@H](O)[C@H]2[C@]1(COC(C)=O)CCCC(C)(C)[C@H]1C[C@H]3OC
IC50 (TE-1): 0.87 µM

IC50 (MCF7): 1.01 µM | IC50 (A549): 2.71 µM | IC50 (MGC-803): 1 µM | solubility [1]: Soluble
Compound: C=C1C(=O)[C@]23[C@H](OC(=O)[C@@H](N)Cc4ccccc4)[C@H]1C[C@H](O)[C@H]2[C@]1(COC(C)=O)CCCC(C)(C)[C@H]1C[C@H]3OC.O=C(O)C(F)(F)F
IC50 (TE-1): 1.88 µM

IC50 (MCF7): 2.27 µM | IC50 (A549): 4.63 µM | IC50 (MGC-803): 2.86 µM | solubility [1]: Insoluble
Compound: C=C1C(=O)[C@]23[C@H](OC(=O)[C@H](CCSC)NC(=O)OC(C)(C)C)[C@H]1C[C@H](O)[C@H]2[C@]1(COC(C)=O)CCCC(C)(C)[C@H]1C[C@H]3OC
IC50 (TE-1): 1.33 µM

IC50 (MCF7): 2.36 µM | IC50 (A549): 5.63 µM | IC50 (MGC-803): 2.64 µM | solubility [1]: Insoluble
Compound: C=C1C(=O)[C@]23[C@H](OC(=O)[C@H](C)NC(=O)OC(C)(C)C)[C@H]1C[C@H](O)[C@H]2[C@]1(COC(C)=O)CCCC(C)(C)[C@H]1C[C@H]3OC
IC50 (TE-1): 1.07 µM

IC50 (MCF7): 3.09 µM | IC50 (A549): 4.81 µM | IC50 (MGC-803): 4.85 µM | solubility [1]: Insoluble
Compound: C=C1C(=O)[C@]23[C@H](OC(=O)[C@H](CC)NC(=O)OC(C)(C)C)[C@H]1C[C@H](O)[C@H]2[C@]1(COC(C)=O)CCCC(C)(C)[C@H]1C[C@H]3OC
IC50 (TE-1): 1.74 µM

IC50 (MCF7): 3.06 µM | IC50 (A549): 6.22 µM | IC50 (MGC-803): 3.22 µM | solubility [1]: Insoluble
Compound: C=C1C(=O)[C@]23[C@H](OC(=O)[C@H](Cc4ccccc4)NC(=O)OC(C)(C)C)[C@H]1C[C@H](O)[C@H]2[C@]1(COC(C)=O)CCCC(C)(C)[C@H]1C[C@H]3OC
IC50 (TE-1): 2.44 µM

IC50 (MCF7): 4.06 µM | IC50 (A549): 6.46 µM | IC50 (MGC-803): 5.43 µM | solubility [1]: Insoluble
Compound: C=C1C(=O)[C@]23[C@H](OC(=O)[C@H](CCCCNC(=O)OC(C)(C)C)NC(=O)OC(C)(C)C)[C@H]1C[C@H](O)[C@H]2[C@]1(COC(C)=O)CCCC(C)(C)[C@H]1C[C@H]3OC
IC50 (TE-1): 2.76 µM

IC50 (MCF7): 7.1 µM | IC50 (A549): 9.5 µM | IC50 (MGC-803): 5.47 µM | solubility [1]: Insoluble
Compound: C=C1C(=O)[C@]23[C@H](OC(=O)[C@H](C(C)C)N(C)C(=O)OC(C)(C)C)[C@H]1C[C@H](O)[C@H]2[C@]1(COC(C)=O)CCCC(C)(C)[C@H]1C[C@H]3OC
IC50 (TE-1): 5.41 µM

IC50 (MCF7): 2.59 µM | IC50 (A549): 6.81 µM | IC50 (MGC-803): 4.93 µM | solubility [1]: Insoluble
Compound: C=C1C(=O)[C@]23[C@H](OC(=O)[C@H](CCC)NC(=O)OC(C)(C)C)[C@H]1C[C@H](O)[C@H]2[C@]1(COC(C)=O)CCCC(C)(C)[C@H]1C[C@H]3OC
IC50 (TE-1): 1.82 µM

IC50 (MCF7): 1.81 µM | IC50 (A549): 3.35 µM | IC50 (MGC-803): 1.06 µM | solubility [1]: Soluble
Compound: C=C1C(=O)[C@]23[C@H](OC(=O)[C@@H](N)CCc4ccccc4)[C@H]1C[C@H](O)[C@H]2[C@]1(COC(C)=O)CCCC(C)(C)[C@H]1C[C@H]3OC.O=C(O)C(F)(F)F
IC50 (TE-1): 2.98 µM
